Experimental findings from ChEMBL document CHEMBL1152089, “Alkyl ether derivatives of the FK-506 related, immunosuppressive macrolide L-683,742 (C31-O-desmethyl ascomycin)” (Bioorg Med Chem Lett, 1994) are described below.

Assay [1] addresses T1, Peptidyl-prolyl cis-trans isomerase FKBP1A (Homo sapiens, UniProt P62942). Description: Ability to bind the major cystolic receptor FK506 binding protein 12 by using competitive binding assay.
Another assay is filed under the species Mus musculus. Description: In vitro immunosuppressive activity against proliferation of antigen stimulated murine splenic T cells. It counts as functional, organism-based. To be noted: T-cell.
For assay [2], the target named is T1, Peptidyl-prolyl cis-trans isomerase FKBP1A. Description: Ability to bind the major cystolic receptor FKBP12 by using competitive binding assay.

T1 sequence (P62942 whole entry): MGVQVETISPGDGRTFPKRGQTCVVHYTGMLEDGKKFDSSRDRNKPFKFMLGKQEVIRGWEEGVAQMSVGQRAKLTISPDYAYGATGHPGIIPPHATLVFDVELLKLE

With `CC[C@@H]1/C=C(\C)C[C@H](C)C[C@H](OC)[C@H]2OC(O)(C(=O)C(=O)N3CCCC[C@H]3C(=O)O[C@H](/C(C)=C/[C@@H]3CC[C@@H](OCc4ccsc4)[C@H](O)C3)[C@H](C)[C@@H](O)CC1=O)[C@@H](C)C[C@@H]2OC`, in assay [1], the EC50 is 12 nM. In the assay filed under Mus musculus, the IC50 came to 4.4 nM.
In assay [1], `C=CCO[C@@H]1C[C@H](/C=C(\C)[C@H]2OC(=O)[C@@H]3CCCCN3C(=O)C(=O)C3(O)O[C@H]([C@@H](OC)C[C@@H](C)C/C(C)=C/[C@@H](CC)C(=O)C[C@H](O)[C@H]2C)[C@@H](OC)C[C@@H]3C)CC[C@H]1O` registered a concentration giving a half-maximal response (EC50) of 2.7 nM. The same molecule yielded a concentration for half-maximal inhibition (IC50) in the assay listed under Mus musculus of 0.68 nM.
Regarding `C/C=C/CO[C@@H]1CC[C@@H](/C=C(\C)[C@H]2OC(=O)[C@@H]3CCCCN3C(=O)C(=O)C3(O)O[C@H]([C@@H](OC)C[C@@H](C)C/C(C)=C/[C@@H](CC)C(=O)C[C@H](O)[C@H]2C)[C@@H](OC)C[C@@H]3C)C[C@H]1O`, the half-maximal effective concentration (EC50) in assay [1] worked out at 9.2 nM. The IC50 in the assay listed under Mus musculus was found to be 8.6 nM.
In assay [1], `C=CCO[C@@H]1CC[C@@H](/C=C(\C)[C@H]2OC(=O)[C@@H]3CCCCN3C(=O)C(=O)C3(O)O[C@H]([C@@H](OC)C[C@@H](C)C/C(C)=C/[C@@H](CC)C(=O)C[C@H](O)[C@H]2C)[C@@H](OC)C[C@@H]3C)C[C@H]1O` showed an EC50 of 6.1 nM. For the same molecule, the IC50 in the assay listed under Mus musculus was determined as 5.5 nM.
The matching figures for `C=CC(C)O[C@@H]1C[C@H](/C=C(\C)[C@H]2OC(=O)[C@@H]3CCCCN3C(=O)C(=O)C3(O)O[C@H]([C@@H](OC)C[C@@H](C)C/C(C)=C/[C@@H](CC)C(=O)C[C@H](O)[C@H]2C)[C@@H](OC)C[C@@H]3C)CC[C@H]1O` (some centres not stated): 6.6 nM and 0.73 nM.
Take `C=CC(C)O[C@@H]1CC[C@@H](/C=C(\C)[C@H]2OC(=O)[C@@H]3CCCCN3C(=O)C(=O)C3(O)O[C@H]([C@@H](OC)C[C@@H](C)C/C(C)=C/[C@@H](CC)C(=O)C[C@H](O)[C@H]2C)[C@@H](OC)C[C@@H]3C)C[C@H]1O` (some centres not stated): a half-maximal effect in assay [1] (EC50) was put at 14.9 nM. The concentration for half-maximal inhibition (IC50) in the assay filed under Mus musculus turned out to be 6.6 nM.
Take `C=CC[C@@H]1/C=C(\C)C[C@H](C)C[C@H](OC)[C@H]2O[C@@](O)(C(=O)C(=O)N3CCCC[C@H]3C(=O)O[C@H](/C(C)=C/[C@@H]3CC[C@@H](O)[C@H](OC)C3)[C@H](C)[C@@H](O)CC1=O)C(C)C[C@@H]2OC` (single isomer, unassigned) [TACROLIMUS ANHYDROUS]: the IC50 in the assay filed under Mus musculus was 0.29 nM.
Regarding `CC[C@@H]1/C=C(\C)C[C@H](C)C[C@H](OC)[C@H]2OC(O)(C(=O)C(=O)N3CCCC[C@H]3C(=O)O[C@H](/C(C)=C/[C@@H]3CC[C@@H](O)[C@H](OC(C)C)C3)[C@H](C)[C@@H](O)CC1=O)[C@@H](C)C[C@@H]2OC`, the EC50 in assay [2] came to 3.4 nM. In the assay listed under Mus musculus, the IC50 worked out at 0.59 nM.
Take `CC[C@@H]1/C=C(\C)C[C@H](C)C[C@H](OC)[C@H]2OC(O)(C(=O)C(=O)N3CCCC[C@H]3C(=O)O[C@H](/C(C)=C/[C@@H]3CC[C@@H](O)[C@H](OCc4ccsc4)C3)[C@H](C)[C@@H](O)CC1=O)[C@@H](C)C[C@@H]2OC`: the EC50 in assay [1] worked out at 5.7 nM. In the assay filed under Mus musculus, this molecule had an IC50 of 3.2 nM.
In assay [1], `CC[C@@H]1/C=C(\C)C[C@H](C)C[C@H](OC)[C@H]2OC(O)(C(=O)C(=O)N3CCCC[C@H]3C(=O)O[C@H](/C(C)=C/[C@@H]3CC[C@@H](OCc4ccco4)[C@H](O)C3)[C@H](C)[C@@H](O)CC1=O)[C@@H](C)C[C@@H]2OC` had an EC50 of 15.6 nM. Also, the IC50 in the assay listed under Mus musculus stood at 7.8 nM.
In assay [1], `C/C=C/CO[C@@H]1C[C@H](/C=C(\C)[C@H]2OC(=O)[C@@H]3CCCCN3C(=O)C(=O)C3(O)O[C@H]([C@@H](OC)C[C@@H](C)C/C(C)=C/[C@@H](CC)C(=O)C[C@H](O)[C@H]2C)[C@@H](OC)C[C@@H]3C)CC[C@H]1O` displayed a concentration giving a half-maximal response (EC50) of 7 nM. In the assay filed under Mus musculus, this molecule returned an IC50 of 2.1 nM.
For the molecule `CC[C@@H]1/C=C(\C)C[C@H](C)C[C@H](OC)[C@H]2OC(O)(C(=O)C(=O)N3CCCC[C@H]3C(=O)O[C@H](/C(C)=C/[C@@H]3CC[C@@H](O)[C@H](OCc4ccco4)C3)[C@H](C)[C@@H](O)CC1=O)[C@@H](C)C[C@@H]2OC`, a half-maximal effect in assay [1] (EC50) was put at 4.6 nM. Further, the IC50 in the assay listed under Mus musculus amounted to 3.6 nM.
On to `C=C(C)CO[C@@H]1CC[C@@H](/C=C(\C)[C@H]2OC(=O)[C@@H]3CCCCN3C(=O)C(=O)C3(O)O[C@H]([C@@H](OC)C[C@@H](C)C/C(C)=C/[C@@H](CC)C(=O)C[C@H](O)[C@H]2C)[C@@H](OC)C[C@@H]3C)C[C@H]1O`, for which, in the assay filed under Mus musculus, the IC50 was 3.4 nM.
As to `CC[C@@H]1/C=C(\C)C[C@H](C)C[C@H](OC)[C@H]2OC(O)(C(=O)C(=O)N3CCCC[C@H]3C(=O)O[C@H](/C(C)=C/[C@@H]3CC[C@@H](O)[C@H](OCc4cccs4)C3)[C@H](C)[C@@H](O)CC1=O)[C@@H](C)C[C@@H]2OC`, in assay [1], a half-maximal effect (EC50) was put at 10.3 nM. Further, 1.1 nM corresponded to half-maximal inhibition in the assay listed under Mus musculus (IC50).
In assay [1], `CC[C@@H]1/C=C(\C)C[C@H](C)C[C@H](OC)[C@H]2O[C@@](O)(C(=O)C(=O)N3CCCC[C@H]3C(=O)O[C@H](/C(C)=C/[C@@H]3CC[C@@H](O)[C@H](O)C3)[C@H](C)[C@@H](O)CC1=O)[C@@H](C)C[C@@H]2OC` showed an EC50 of 5 nM. This molecule also had an IC50 in the assay filed under Mus musculus of 1.8 nM.
Turning to `CC[C@@H]1/C=C(\C)C[C@H](C)C[C@H](OC)[C@H]2OC(O)(C(=O)C(=O)N3CCCC[C@H]3C(=O)O[C@H](/C(C)=C/[C@@H]3CC[C@@H](OCc4cccs4)[C@H](O)C3)[C@H](C)[C@@H](O)CC1=O)[C@@H](C)C[C@@H]2OC`, the EC50 in assay [1] came to 11.8 nM. In the assay filed under Mus musculus, the IC50 amounted to 2.8 nM.
Take `CC[C@@H]1/C=C(\C)C[C@H](C)C[C@H](OC)[C@H]2OC(O)(C(=O)C(=O)N3CCCC[C@H]3C(=O)O[C@H](/C(C)=C/[C@@H]3CC[C@@H](OC(C)C)[C@H](O)C3)[C@H](C)[C@@H](O)CC1=O)[C@@H](C)C[C@@H]2OC`: the IC50 in the assay listed under Mus musculus was found to be 9.1 nM.
Molecule `C=C(C)CO[C@@H]1C[C@H](/C=C(\C)[C@H]2OC(=O)[C@@H]3CCCCN3C(=O)C(=O)C3(O)O[C@H]([C@@H](OC)C[C@@H](C)C/C(C)=C/[C@@H](CC)C(=O)C[C@H](O)[C@H]2C)[C@@H](OC)C[C@@H]3C)CC[C@H]1O` came in with an IC50 in the assay listed under Mus musculus of 1.9 nM.

Broadly, the EC50 is the midpoint of the concentration-response curve. A low value points to a more potent agent. By IC50 is commonly meant the concentration at which inhibition is half-maximal. Higher therefore signals weaker potency in that assay.
